Test systems include PC-3 prostate; 786-0 renal; SK-MEL-28 melanoma; SK-MEL-5 melanoma; UACC-257 melanoma; NCI-H522 lung; MOLT-4 leukemia; A498 renal; HT29 colon; OVCAR-5 ovarian.
Common to all, as to test: NCI anticancer screen, dose series, 48 h

Each structure is given as a SMILES string. Values joined by “and” are separate entries in the source; they are usually repeats but may differ in a detail not shown here. Equal values may be shown once.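 In this assay, cells in 96-well plates receive the compound at five concentrations for 48 hours. Endpoints are linearly interpolated between the surrounding concentrations. GI50 marks 50% less growth. At the TGI there is no net growth.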 Some results are limits rather than exact numbers.

Consider `CON(C)C(=O)N1N=C(c2cc(F)ccc2F)SC1(CCCN)c1ccccc1` (stereo not drawn), for which the GI50 was 0.0179 µM and < 0.01 µM with PC-3 prostate; 0.0574 µM and < 0.01 µM with 786-0 renal; 10.6 µM and 2.97 µM in the assay with SK-MEL-28 melanoma; less than 0.01 µM in the assay on SK-MEL-5 melanoma; 0.0201 µM and < 0.01 µM with NCI-H522 lung; 0.0547 µM and < 0.01 µM with MOLT-4 leukemia. Further, the GI50 in the assay on A498 renal is 0.0452 µM and < 0.01 µM; in the assay with HT29 colon, 0.0301 µM and < 0.01 µM; with OVCAR-5 ovarian it was 0.0576 µM and < 0.01 µM. Also, the TGI is 15 µM and 14.2 µM in the assay on PC-3 prostate; 18.1 µM and 18.5 µM with 786-0 renal; 23.8 µM and 23.1 µM in the assay with SK-MEL-28 melanoma; 12.2 µM and 12.6 µM in the assay with SK-MEL-5 melanoma; 21.7 µM and 22.3 µM in the assay on UACC-257 melanoma; 10.7 µM and 5.31 µM with NCI-H522 lung. For the same molecule, the TGI was 20 µM and 18.2 µM in the assay with MOLT-4 leukemia; 13.5 µM and 13.4 µM in the assay with A498 renal; 5.05 µM and 10.8 µM in the assay with HT29 colon; 15.1 µM and 15.8 µM with OVCAR-5 ovarian.

In the case of `COC(=O)C12C3C4C1C1C2C3C41NC(=O)c1csc([C@@H](C[C@H](C(C)C)N(C)C(=O)[C@@H](NC(=O)[C@H]2CCCCN2C)C2CC2)OC(C)=O)n1` (stereo partly drawn), the GI50 in the assay with PC-3 prostate was 0.0482 µM; in the assay on 786-0 renal, 0.088 µM; in the assay on SK-MEL-5 melanoma, 0.00977 µM; with UACC-257 melanoma it was more than 16.6 µM; in the assay with NCI-H522 lung, 0.00401 µM; in the assay with MOLT-4 leukemia, 0.00729 µM. Further, the GI50 is 0.116 µM with A498 renal, 0.00658 µM in the assay on HT29 colon and 0.294 µM with OVCAR-5 ovarian. For the same molecule, the TGI in the assay with PC-3 prostate was more than 33.3 µM; in the assay with 786-0 renal, more than 33.3 µM; in the assay with SK-MEL-28 melanoma, more than 33.3 µM; in the assay on SK-MEL-5 melanoma, 0.526 µM; in the assay with UACC-257 melanoma, more than 33.3 µM; in the assay on NCI-H522 lung, 1.27 µM. Moreover, the TGI was more than 33.3 µM in the assay on MOLT-4 leukemia, more than 10.6 µM with A498 renal, more than 33.3 µM in the assay on HT29 colon and more than 33.3 µM with OVCAR-5 ovarian.

Take `CC[C@H](C)[C@H]1O[C@]2(C=C[C@@H]1C)C[C@@H]1C[C@@H](C/C=C(\C)[C@@H](O[C@H]3C[C@H](OC)[C@@H](O[C@H]4C[C@H](OC)[C@@H](NC)[C@H](C)O4)[C@H](C)O3)[C@@H](C)/C=C/C=C3\CO[C@@H]4[C@H](O)C(C)=C[C@@H](C(=O)O1)[C@]34O)O2`: the GI50 in the assay on PC-3 prostate is 2.78 µM; in the assay on 786-0 renal, 1.26 µM; with SK-MEL-28 melanoma, 1.73 µM; with SK-MEL-5 melanoma it was 1.8 µM; with UACC-257 melanoma, 2.03 µM; in the assay on NCI-H522 lung, 1.75 µM. The GI50 in the assay with MOLT-4 leukemia is 1.81 µM; in the assay with A498 renal, 2.68 µM; in the assay on HT29 colon it was 1.88 µM; in the assay with OVCAR-5 ovarian, 3.41 µM. The TGI was 11.7 µM in the assay on PC-3 prostate; 2.94 µM in the assay on 786-0 renal; 3.47 µM in the assay with SK-MEL-28 melanoma; 3.2 µM with SK-MEL-5 melanoma; 4.21 µM in the assay with UACC-257 melanoma; 3.73 µM in the assay on NCI-H522 lung. Also, the TGI in the assay with MOLT-4 leukemia turned out to be 4.48 µM; in the assay on A498 renal it was 11.6 µM; in the assay on HT29 colon it was 4.14 µM; in the assay with OVCAR-5 ovarian, 14.9 µM.

In the case of `CC(C)(C)c1ccc(O)c(CN(Cc2cc(C(C)(C)C)ccc2O)c2ccccc2)c1`, the TGI in the assay with PC-3 prostate is 42.1 µM; with 786-0 renal it was 30.7 µM; with SK-MEL-28 melanoma it was 32.4 µM; in the assay with SK-MEL-5 melanoma it was 28.5 µM; with UACC-257 melanoma it was 12.4 µM; in the assay with NCI-H522 lung, 26.9 µM. Further, the TGI with MOLT-4 leukemia worked out at 37.8 µM; in the assay with A498 renal, 28.1 µM; in the assay with HT29 colon, 35.3 µM; in the assay with OVCAR-5 ovarian, 31.8 µM.

Regarding `O=C(/C=C\n1cnc(-c2cc(C(F)(F)F)cc(C(F)(F)F)c2)n1)NNc1cnccn1`, the GI50 in the assay on PC-3 prostate is 0.128 µM; in the assay on 786-0 renal, 0.0781 µM; in the assay on SK-MEL-28 melanoma, 0.0672 µM; with SK-MEL-5 melanoma it was 0.151 µM; with UACC-257 melanoma, 0.188 µM; in the assay with NCI-H522 lung, 0.128 µM. The GI50 is 0.0312 µM in the assay on MOLT-4 leukemia, 0.0216 µM in the assay with A498 renal, 0.131 µM in the assay with HT29 colon and 0.189 µM in the assay with OVCAR-5 ovarian. Further, the TGI in the assay on PC-3 prostate is 15.7 µM; in the assay on 786-0 renal it was 13.9 µM; in the assay on SK-MEL-28 melanoma, 11 µM; with SK-MEL-5 melanoma, 2.22 µM; with UACC-257 melanoma, 16.6 µM; with NCI-H522 lung, 6.42 µM. The TGI in the assay on MOLT-4 leukemia was more than 100 µM; with A498 renal, 0.338 µM; in the assay with HT29 colon, 22.4 µM; in the assay on OVCAR-5 ovarian it was 16.3 µM.

These data come from PubChem BioAssay (NCI).
